# Reference: US12643859B2, “Pyridyl oxycarboxylic acid oxime derivative and preparation method therefor, weeding composition and application thereof” (Qingdao Kingagroot Chemical Compound Co., Ltd., priority 2018, dated 2026)
# Test system: Monocotyledonous and dicotyledonous weed seeds and main crop seeds
# Experiment: Post-emergence test experiment (Table 3, 1000 g a.i./ha)
# Assay type: in vivo
# Conditions: 3 weeks in greenhouse, fresh weight inhibition
# Experimental: The above described growth inhibition rate is fresh weight inhibition rate.
# Post-emergence test experiment: Monocotyledonous and dicotyledonous weed seeds and main crop seeds (i. e. wheat, corn, rice, soybean, cotton, oilseed, millet and sorghum.) were put into a plastic pot loaded with soil. Then covered with 0.5-2 cm soil, the seeds were allowed to grow in good greenhouse environment. The test plants were treated at 2-3 leaf stage 2 weeks after sowing. The test compounds of the invention were dissolved with acetone respectively, then added with tween-80, and using 1.5 liters per hectare of an emulsible concentrate of methyl oleate as a synergist, and diluted by certain amount of water to certain concentration. The solution was sprayed to the plants with a sprayer. Then the plants were cultured for 3 weeks in the greenhouse, and the experiment result of weed controlling effect was listed in tables 3-4.
Structure (SMILES),Activity level (growth inhibition rate) Digitaria sanguinalis,Activity level (growth inhibition rate) Echinochloa crusgalli,Activity level (growth inhibition rate) Galium spurium,Activity level (growth inhibition rate) Leptochloa chinensis,Activity level (growth inhibition rate) Monochoria Vaginalis,Activity level (growth inhibition rate) Murdannia triquetra,Activity level (growth inhibition rate) Setaria viridis
CC(Oc1nc(F)c(Cl)c(N)c1Cl)C(=O)ON=C(C(=O)NCc1ccccc1)c1ccccc1 (centres unmarked) [Compound 101],5 (Level 5: the growth inhibition rate is greater than 85%),5 (Level 5: the growth inhibition rate is greater than 85%),5 (Level 5: the growth inhibition rate is greater than 85%),5 (Level 5: the growth inhibition rate is greater than 85%),5 (Level 5: the growth inhibition rate is greater than 85%),5 (Level 5: the growth inhibition rate is greater than 85%),5 (Level 5: the growth inhibition rate is greater than 85%)
CC(Oc1nc(F)c(Cl)c(N)c1Cl)C(=O)ON=Cc1cccc([N+](=O)[O-])c1 (centres unmarked) [Compound 73],5 (Level 5: the growth inhibition rate is greater than 85%),5 (Level 5: the growth inhibition rate is greater than 85%),5 (Level 5: the growth inhibition rate is greater than 85%),5 (Level 5: the growth inhibition rate is greater than 85%),5 (Level 5: the growth inhibition rate is greater than 85%),5 (Level 5: the growth inhibition rate is greater than 85%),5 (Level 5: the growth inhibition rate is greater than 85%)
C=COC(=O)C(=NOC(=O)C(C)Oc1nc(F)c(Cl)c(N)c1Cl)C(=O)N(C)c1ccccc1 (centres unmarked) [Compound 106],5 (Level 5: the growth inhibition rate is greater than 85%),5 (Level 5: the growth inhibition rate is greater than 85%),5 (Level 5: the growth inhibition rate is greater than 85%),5 (Level 5: the growth inhibition rate is greater than 85%),5 (Level 5: the growth inhibition rate is greater than 85%),5 (Level 5: the growth inhibition rate is greater than 85%),5 (Level 5: the growth inhibition rate is greater than 85%)
CC(Oc1nc(F)c(Cl)c(N)c1Cl)C(=O)ON=C(c1ccccc1)c1ccc(F)cc1 (centres unmarked) [Compound 83],5 (Level 5: the growth inhibition rate is greater than 85%),5 (Level 5: the growth inhibition rate is greater than 85%),5 (Level 5: the growth inhibition rate is greater than 85%),5 (Level 5: the growth inhibition rate is greater than 85%),5 (Level 5: the growth inhibition rate is greater than 85%),5 (Level 5: the growth inhibition rate is greater than 85%),5 (Level 5: the growth inhibition rate is greater than 85%)
CC(=O)C(=NOC(=O)C(C)Oc1nc(F)c(Cl)c(N)c1Cl)c1ccc(NOc2ccccc2)cc1 (centres unmarked) [Compound 91],5 (Level 5: the growth inhibition rate is greater than 85%),5 (Level 5: the growth inhibition rate is greater than 85%),5 (Level 5: the growth inhibition rate is greater than 85%),5 (Level 5: the growth inhibition rate is greater than 85%),5 (Level 5: the growth inhibition rate is greater than 85%),5 (Level 5: the growth inhibition rate is greater than 85%),5 (Level 5: the growth inhibition rate is greater than 85%)
